Measured values from US4395969A (priority 1981, dated 1983).
“And” between values parts separate entries of the source, which are not always exact repeats. Equal entries are not always repeated.

Columns and labels:
threespine stickleback [1] = test system: threespine stickleback; parameters: species or system Gasterosteus aculeatus; conditions: in vivo
brook stickleback = experiment: Static bioassay, lethal concentration to brook stickleback; type: in vivo, Eucalia inconstans; conditions: 15 C
Experimental: (§1) Bioassays utilized water from an artesian well at Moscow, Idaho and from the headwaters of the Palouse River, also in Idaho. The chemical characteristics of the artesian water were analyzed as follows: Total hardness 67-120 mg/l; total dissolved solids, 160-175 mg/l; and pH 7.1. The chemistry of the Palouse River water was analyzed as follows: total hardness 17 mg/l; methyl orange alkalinity 26 mg/l; total dissolved solids, 32 mg/l and pH, 7.0.
(§2) Fish were acclimated to test temperatures, usually at 5, 7.5, 10, 15 and 20 degrees Celsius (C), at least 60 hours before exposure to toxicants. For fish and crayfish four water baths regulated the temperature of assay aquaria. Each water bath contained a battery of 20 identical 19-liter clear glass containers or 11.4-liter plastic aquaria lined with disposable polyethylene bags and covered with Plexiglass lids to reduce evaporation. For larger fish and large numbers of fish the bioassays were made in two temperature controlled rooms that contained a series of 700-liter circular fiberglass vats and a series of 76- and 91-liter plastic containers.
(§3) Standard bioassay techniques were used in sorting fish and conducting the tests. Fish were placed in aerated test aquaria overnight to permit fish to recover from stress due to handling and to deprive them of food. The average load varied but most bioassays were conducted with about 1 g of fish per liter of water.
(§4) Aliquots of organophosphates were dissolved in ethanol and dispensed to the aquaria to provide concentrations suitable for obtaining the LC0 and LC50 of desirable fish and the LC50 and LC100 of target fish. Control fish were conditioned in the same manner as the test fish, but no chemical was added to the control vessels during the assays. After the addition of a chemical, observations were made mainly at 3, 6, 12, 24, 48, 96, and 192 h. The weight and fork length of fish were obtained when fishes were sacrificed.
(§5) Delineation bioassays determined primarily the LC50 and LC100 of sucker and stickleback and the LC0 and LC50 of salmonids.
(§6) The statistical LC1, LC50, and LC99 were interpolated and/or extrapolated using probit graph paper to approximate the LC0, LC50, and LC100 when the latter set of values was not closely determined by single concentrations in a series.
(§7) The approximate LC50 and LC100 of the target fishes (threespine and brook sticklebacks and bridgelip and white suckers) are tabulated in Table 1. The 96-hour selectivity and safety indices of selected species of salmonids versus the three-spine stickleback are tabulated in Table 3.
(§8) Threespine stickleback, brook stickleback, bridgelip sucker, white sucker, chinook salmon, coho salmon, sockeye salmon, kokanee, Kamloops trout, cutthroat trout, and brook trout were treated with various concentrations of 2, 2, 2, 1-tetrachloroethyl diethyl phosphate and at various temperatures to determine approximate selectivity and safety indices. The approximate LC50 and LC100 of the target fishes (threespine and brook sticklebacks and bridgelip and white suckers) are tabulated in Table 5. The 96-hour selectivity and safety indices of selected species of salmonids versus the threespine stickleback are tabulated in Table 7.

[2] = Static bioassay, lethal concentration to sockeye salmon; type: in vivo, O. nerka; conditions: sockeye salmon, in vivo
Experimental: as §1, §2, §3, §4, §5, §6, §7, §8

sockeye salmon = experiment: as above; type: in vivo, O. nerka
Experimental: as §1, §2, §3, §4, §5, §6, §7, §8

[3] = Static bioassay, lethal concentration to brook trout; type: in vivo, Salvelinus fontinalis; conditions: brook trout, water, 15 C
Experimental: as §1, §2, §3, §4, §5, §6, §7, §8

threespine stickleback [4] = test system: threespine stickleback; parameters: species or system Gasterosteus aculeatus; conditions: in vivo; remark: listed apart in the source
bridgelip sucker = experiment: Selectivity and safety indices of salmonids versus the bridgelip sucker; type: in vivo, Catastomus columbianus; conditions: 96 h
Text: as §5, §6, §7, §8

[5] = Half-life / degradation in water (gas chromatograph analysis); type: physicochemical; conditions: river water, 15 C
Text: The presence of bacteria and other microorganisms affect the rate of degradation of the dichloro- and tetrachloro-compounds. Because of this the chemicals break down much faster in river water than in artesian well water or distilled water. For short term bioassays the potencies of the chemicals were not affected by the chemistry of the water.

sucker and stickleback = conditions: in vivo
coho salmon = experiment: Long-term static bioassay, coho salmon; conditions: 64 days, 10 C, individually
chinook salmon = experiment: Long-term static bioassay, chinook salmon; conditions: 64 days, 10 C, individually
spotted sucker = experiment: Exploratory bioassay, spotted sucker; type: in vivo, Minytrema melanops; conditions: less than 24 h; 15 C; 31 to 38 mm
Experimental: Cursory bioassays were made with small numbers of other fishes and a crayfish (Pacifasticus klamathensis) to check on the universal selectivity of the toxicants. The fishes included Arctic grayling (Thymallus arcticus), longnose sucker (C. catastomus), largescale sucker, (C. macrocheilus), and spotted sucker (Minytrema melanops).
A series of five 24-hour biassays was made with the spotted sucker (2 fish per aquarium) at a concentration range of 1 mg/l to 5 mg/l of 2, 2-dichlorovinyl diethyl phosphate. The chemical killed all of the spotted suckers (31 to 38 mm) at 1 mg/l in less than 24 hours at 15 C.

[6] = 10 C, individually, read-out: LC50
[7] = with 2 Cl 1:300, 10 C, read-out: LC50 in combination, 4 Cl component
[8] = 6 μg/l (or less), listed as 2, 2, 2, 1-tetrachloroethyl diethyl phosphate
[9] = with 4 Cl 300:1, 10 C, read-out: LC50 in combination, 2 Cl component
[10] = 300 μg/l, listed as 2, 2-dichlorovinyl diethyl phosphate

## CCOP(=O)(OCC)OC(Cl)C(Cl)(Cl)Cl (stereo not drawn) [2,2,2,1-tetrachloroethyl diethyl phosphate]
Threespine stickleback [1]
  LC50 in combination, 4 Cl component: 0.001 µg/mL and 0.00067 µg/mL
  concentration achieving 100% mortality: 7 mg/L
Brook stickleback; 24 h
  LC50: 0.006 µg/mL
  LC100: 0.01 mg/L
Brook stickleback; 48 h
  LC100: 0.008 mg/L
Brook stickleback; 96 h
  LC100: 0.006 mg/L
[2]; 7.5 C
  LC50 at 48 h: 0.05 µg/mL
[2]; 7.5 C, read-out: LC50
  LC50 at 96 h: 0.02 µg/mL
  LC50 at 192 h: 0.014 µg/mL
[2]; 10 C
  LC50 at 48 h: 0.03 µg/mL
[2]; [6]
  LC50 at 96 h: 0.017 µg/mL
  LC50 at 192 h: 0.016 µg/mL
[2]; [7]
  LC50 at 96 h: 0.008 µg/mL
  LC50 at 192 h: 0.006 µg/mL
Sockeye salmon; 7.5 C, 48 h
  LC0: 36 µg/L
Sockeye salmon; 7.5 C, 96 h
  LC0: 14 µg/L
Sockeye salmon; 7.5 C, 192 h
  LC0: 10 µg/L
Sockeye salmon; 10 C, 48 h
  LC0: 20 µg/L
Sockeye salmon; 10 C, 96 h, individually
  LC50: 0.017 µg/mL
Sockeye salmon; 10 C, 96 h, individually, listed as 2, 2, 2, 1-tetrachloroethyl diethyl phosphate
  LC0: 12 µg/L and 10 µg/L
Sockeye salmon; 10 C, 96 h, individually, listed as 4 Cl
  LC0: 12 µg/L
Sockeye salmon; 10 C, 192 h
  LC0: 10 µg/L
Sockeye salmon; 10 C, 192 h, individually, listed as 4 Cl, 11520 min
  LC50: 0.015 µg/mL
[3]
  LC50 at 48 h: 0.022 µg/mL
  LC50 at 96 h: 0.02 µg/mL
  LC50 at 192 h: 0.02 µg/mL
Threespine stickleback [4]; 5760 min
  Safety index (LC0/LC100): 2.3
Bridgelip sucker; Kamloops, 5 C
  Safety index (LC0/LC100): 2.4
  Selectivity index (LC50/LC50): 4.3
Bridgelip sucker; Kamloops, 10 C
  Safety index (LC0/LC100): 1.8
  Selectivity index (LC50/LC50): 6.0
Bridgelip sucker; Kamloops, 15 C
  Safety index (LC0/LC100): 2.1
  Selectivity index (LC50/LC50): 6.0
Bridgelip sucker; brook trout, 15 C
  Safety index (LC0/LC100): 1.4
  Selectivity index (LC50/LC50): 5.0
Bridgelip sucker; chinook, 10 C
  Safety index (LC0/LC100): 2.4
  Selectivity index (LC50/LC50): 6.3
Bridgelip sucker; coho, 10 C
  Safety index (LC0/LC100): 1.7
  Selectivity index (LC50/LC50): 5.8
Bridgelip sucker; cutthroat, 10 C
  Safety index (LC0/LC100): 1.7
  Selectivity index (LC50/LC50): 4.8
Bridgelip sucker; cutthroat, 15 C
  Safety index (LC0/LC100): 2.0
  Selectivity index (LC50/LC50): 4.5
Bridgelip sucker; kokanee, 15 C
  Safety index (LC0/LC100): 2.9
  Selectivity index (LC50/LC50): 7.5
Bridgelip sucker; sockeye, 10 C
  Safety index (LC0/LC100): 1.4
  Selectivity index (LC50/LC50): 7.5
[5]
  half-life: ~11 days
Sucker and stickleback
  activity relative to the dichloro-compounds: about 100 times
  recommended safe and effective concentration: 20 µg/L
Coho salmon; 6 μg/l (or less)
  mortality: Essentially no mortality
Coho salmon; [8]
  mortality: no significant mortality
Chinook salmon; 6 μg/l (or less)
  mortality: Essentially no mortality
Chinook salmon; [8]
  mortality: no significant mortality

## CCOP(=O)(OC=C(Cl)Cl)OCC [2,2-dichlorovinyl diethyl phosphate]
Threespine stickleback [1]
  LC50 in combination, 2 Cl component: 0.3 µg/mL and 0.2 µg/mL
Brook stickleback; 24 h
  LC50: 0.8 µg/mL
  LC100: 1.0 mg/L
Brook stickleback; 48 h
  LC50: 0.4 µg/mL
  LC100: 0.6 mg/L
Brook stickleback; 96 h
  LC50: 0.4 µg/mL
  LC100: 0.6 mg/L
Brook stickleback; 192 h
  LC50: 0.3 µg/mL
  LC100: 0.6 mg/L
[2]; 7.5 C
  LC50 at 48 h: > 10 µg/mL
[2]; 7.5 C, read-out: LC50
  LC50 at 96 h: 9 µg/mL
  LC50 at 192 h: 4 µg/mL
[2]; 10 C
  LC50 at 48 h: > 8 µg/mL
[2]; [6]
  LC50 at 96 h: 6 µg/mL
  LC50 at 192 h: 3.6 µg/mL
[2]; 10 C, read-out: LC50
  LC50 at 96 h: 6 µg/mL
  LC50 at 192 h: 3.4 µg/mL
[2]; [9]
  LC50 at 96 h: 2.4 µg/mL
  LC50 at 192 h: 1.8 µg/mL
Sockeye salmon; 7.5 C, 48 h
  LC0: > 10000 µg/L
Sockeye salmon; 7.5 C, 96 h
  LC0: 6000 µg/L
Sockeye salmon; 7.5 C, 192 h
  LC0: 2000 µg/L
Sockeye salmon; 10 C, 48 h
  LC0: 6000 µg/L
Sockeye salmon; 10 C, 96 h
  LC0: 3000 µg/L
Sockeye salmon; 10 C, 96 h, individually, listed as 2, 2-dichlorovinyl diethyl phosphate
  LC0: 3000 µg/L
Sockeye salmon; 10 C, 96 h, individually, listed as 2 Cl
  LC0: 3600 µg/L
Sockeye salmon; 10 C, 192 h
  LC0: 2000 µg/L
[3]
  LC50 at 48 h: 5 µg/mL
  LC50 at 96 h: 3.3 µg/mL
  LC50 at 192 h: 3.2 µg/mL
Threespine stickleback [4]
  Selectivity index (LC50/LC50): 5.7
Bridgelip sucker; Kamloops, 5 C
  Safety index (LC0/LC100): 7
  Selectivity index (LC50/LC50): > 34
Bridgelip sucker; Kamloops, 10 C
  Safety index (LC0/LC100): 20
  Selectivity index (LC50/LC50): 67
Bridgelip sucker; Kamloops, 15 C
  Safety index (LC0/LC100): 10
  Selectivity index (LC50/LC50): 70
Bridgelip sucker; brook trout, 15 C
  Safety index (LC0/LC100): 20
  Selectivity index (LC50/LC50): 66
Bridgelip sucker; chinook, 10 C
  Safety index (LC0/LC100): 60
  Selectivity index (LC50/LC50): 87
Bridgelip sucker; chinook, 15 C
  Safety index (LC0/LC100): 27
  Selectivity index (LC50/LC50): 68
Bridgelip sucker; cutthroat, 10 C
  Safety index (LC0/LC100): 40
  Selectivity index (LC50/LC50): > 60
Bridgelip sucker; cutthroat, 15 C
  Safety index (LC0/LC100): 20
  Selectivity index (LC50/LC50): 50
Bridgelip sucker; sockeye, 7.5 C
  Safety index (LC0/LC100): 30
  Selectivity index (LC50/LC50): 100
Bridgelip sucker; sockeye, 10 C
  Safety index (LC0/LC100): 30
  Selectivity index (LC50/LC50): 75
Bridgelip sucker; steelhead, 5 C
  Safety index (LC0/LC100): 13
  Selectivity index (LC50/LC50): 47
Spotted sucker
  concentration that killed all of the spotted suckers: 1 mg/L
[5]
  half-life: < 20 days
Sucker and stickleback
  potency for suckers relative to stickleback: about 10 times
Coho salmon; 300 μg/l
  mortality: essentially no mortality
Coho salmon; [10]
  mortality: no significant mortality
Chinook salmon; 300 μg/l
  mortality: essentially no mortality
Chinook salmon; [10]
  mortality: no significant mortality
